Source: PMC11676834, “Composition of Triterpene Glycosides of the Far Eastern Sea Cucumber Cucumaria conicospermium Levin et Stepanov; Structure Elucidation of Five Minor Conicospermiumosides A3-1, A3-2, A3-3, A7-1, and A7-2; Cytotoxicity of the Glycosides Against Human Breast Cancer Cell Lines; Structure–Activity …” (Marine Drugs, 2024)
Like-named read-outs stand apart in the source and are kept apart here.

Columns and labels:
human erythrocytes = test: Hemolytic activity; type: cell-based; conditions: 1 h at 37 °C; for HC50: Erythrocyte, read-out: ED50, Erythrocytes (hemolytic activity)
Experimental: Human blood (B(III) Rh+) was used to obtain erythrocytes by centrifuging 450× g three times for 5 min with phosphate-buffered saline (PBS) (pH 7.4) at 4 °C on centrifuge LABOFUGE 400R (Heraeus, Hanau, Germany). Ice-cold PBS (pH 7.4) was used for resuspension of erythrocytes residue to a final optical density of 1.5 at 700 nm, which was kept on ice. Then, 10 µL of tested compound solution or control (okhotoside A1-1 (7)) were added to 90 µL of erythrocyte suspension in V-bottom 96-well plates and exposed for 1 h at 37 °C. Next, centrifugation at 900× g for 10 min on a laboratory centrifuge LMC-3000 (Biosan, Riga, Latvia), led to separation of layers, and 80 µL of supernatant was carefully decanted and transferred into new flat-plate for each. The values of erythrocyte lysis were measured on microplate photometer Multiskan FC (Thermo Fisher Scientific, Waltham, MA, USA) at λ = 570 nm as hemoglobin concentration in supernatant. The effective dose, causing lysis of 50% erythrocytes (ED50), was calculated with SigmaPlot 14.0 software. All the experiments were carried out in triple repetitions, p ≤ 0.05.

MDA-MB-231 cells [1] = test: cells; type: cell-based, human
Text: (§1) Human erythrocytes were purchased from the Station of Blood Transfusion, Vladivostok. Human mammary epithelial cell line MCF-10A CRL-10317, human breast cancer cell lines T-47D HTB-133, MCF-7 HTB-22, and MDA-MB-231 CRM-HTB-26 were received from ATCC (Manassas, VA, USA). Culturing conditions: medium of RPMI-1640 with 1% penicillin/streptomycin (Biolot, St. Petersburg, Russia) and 10% fetal bovine serum (FBS) (Biolot, St. Petersburg, Russia) for the T-47D cell line; Minimum Essential Medium (MEM) with 1% penicillin/streptomycin sulfate (Biolot, St. Petersburg, Russia) and FBS (Biolot, St. Petersburg, Russia) to a final concentration of 10% for MCF-7 and MDA-MB-231 cells; DMEM/F12 medium with 10% FBS, 20 ng/mL EGF, […] hydrocortisone, 100 ng/mL cholera toxin, 10 μg/mL insulin, and 1% penicillin/streptomycin (BioinnLabs, Rostov-on-Don, Russia) for MCF-10A cell line.
(§2) The concentrations of tested glycosides were 0.1–50 µM; positive controls were cisplatin and okhotoside A1-1 (7). […] Then, the solutions of tested compounds with medium were replaced by 100 µL of fresh medium, and 10 µL of 3-(4,5-dimethylthiazol-2-yl)-2,5-diphenyltetrazolium bromide (MTT) (PanReac, AppliChem, Darmstadt, Germany) stock solution (5 mg/mL) was added to each well and incubated for 4 h, followed by the addition of 100 µL of SDS-HCl solution (1 g SDS/10 mL d-H2O/17 µL 6 N HCl) and further incubated for 18 h. Multiskan FC microplate photometer (Thermo Fisher Scientific, Waltham, MA, USA) was used to measure the absorbance of the converted dye formazan at 570 nm. The concentration caused the 50% cell metabolic activity inhibition (IC50) expresses the cytotoxic activity of each glycoside. The experiments were conducted in triplicate, p ≤ 0.05.

MDA-MB-231 cells [2] = test: Colony formation (clonogenic) assay, MDA-MB-231; type: cell-based, human
Experimental: (§3) The influence of glycosides on colony formation by MCF-10A or MDA-MB-231 cells was tested by the clonogenic assay. Cell density: 0.3 × 10^2/mL for MDA-MB-231 and for MCF-10A cells per well; incubation conditions: 10–12 days, 37 °C, atmosphere with 5% CO2; obtained: visible to eye colonies (at least 50 cells per colony); fixation with methanol (25 min); staining with 0.5% solution of crystal violet (25 min); washing and air-drying of plates. The counting of grown colonies was carried out using a BIO-PRINT-Cx4 Edge-Fixed Pad-Container (Vilber, Collégien, France) using Bio-Vision Software user and service manual-v18.01 (Vilber, Collégien, France). The results are presented as colony inhibition in comparison with the control.

T-47D cells = test: cells; type: cell-based, human; conditions: MTT, 24 h, read-out: Cytotoxicity, IC50, T-47D
Text: as §1
(§4) The concentrations of tested glycosides were 0.1–50 µM; positive controls were cisplatin and okhotoside A1-1 (7). Methodology: to each well of 96-well plates, the cell suspension (180 µL) with solution (20 µL) of tested glycoside in a certain concentration was placed (MCF-10A, MCF-7, T-47D, and MDA-MB-231—7 × 10^3 cells per well) and incubated in the atmosphere with 5% CO2 at 37 °C for 24 h. Then, the solutions of tested compounds with medium were replaced by 100 µL of fresh medium, and 10 µL of 3-(4,5-dimethylthiazol-2-yl)-2,5-diphenyltetrazolium bromide (MTT) (PanReac, AppliChem, Darmstadt, Germany) stock solution (5 mg/mL) was added to each well and incubated for 4 h, followed by the addition of 100 µL of SDS-HCl solution (1 g SDS/10 mL d-H2O/17 µL 6 N HCl) and further incubated for 18 h. Multiskan FC microplate photometer (Thermo Fisher Scientific, Waltham, MA, USA) was used to measure the absorbance of the converted dye formazan at 570 nm. The concentration caused the 50% cell metabolic activity inhibition (IC50) expresses the cytotoxic activity of each glycoside. The experiments were conducted in triplicate, p ≤ 0.05.

MCF-7 cells = test: cells; type: cell-based, human; conditions: MTT, 24 h, read-out: Cytotoxicity, IC50, MCF-7
Text: as §1, §4

in vitro = type: cell-based, human; conditions: human
Text: as §1, §2

MDA-MB-231 cells [3] = test: Wound scratch migration assay; type: cell-based, human; conditions: 24 h
Experimental: Attached to special migration plate plastic bottom MDA-MB-231 cells were separated by a silicone insert (Culture-insert 2 Well 24, ibiTreat). After removing an insert, the gap between the cells was 500 ± 50 μm. Cell debris and floating cells were deleted, and the fresh culture medium was added. Then, cells were treated with various concentrations of glycosides or culture medium only (vehicle control) and left for 24 hrs. Cell migration into the wound area was observed under a fluorescence microscope (MIB-2-FL, LOMO, Russia) with objective 10× magnification.

MCF-10A cells [4] = test: Colony formation (clonogenic) assay, MCF-10A; type: cell-based, human; conditions: 2 μM
Experimental: as §3

MCF-10A cells [5] = test: in vitro; type: cell-based, human
Text: as §1, §2

[6] = Homo sapiens, MDA-MB-231, 48 h, read-out: Cytotoxicity, IC50, 48 h, MDA-MB-231
[7] = Homo sapiens, MDA-MB-231, 72 h, read-out: Cytotoxicity, IC50, 72 h, MDA-MB-231
[8] = Homo sapiens, MDA-MB-231, MTT, 24 h, read-out: Cytotoxicity, IC50, MDA-MB-231
[9] = Homo sapiens, MDA-MB-231, inhibition out of control, read-out: Inhibition of colony growth of MDA-MB-231 cells
[10] = 48 h, read-out: Cytotoxicity, IC50, 48 h, MCF-10A
[11] = 72 h, read-out: Cytotoxicity, IC50, 72 h, MCF-10A
[12] = MTT, 24 h, read-out: Cytotoxicity, IC50, MCF-10A

| Molecule | HC50 (human erythrocytes) [nM] | Tumor cell selectivity index (SI), IC50 MCF-10A / IC50 MDA-MB-231 (MDA-MB-231 cells [1]; 24 h) | Tumor cell selectivity index (SI), IC50 MCF-10A / IC50 MDA-MB-231 (MDA-MB-231 cells [1]; 48 h) | Tumor cell selectivity index (SI), IC50 MCF-10A / IC50 MDA-MB-231 (MDA-MB-231 cells [1]; 72 h) | IC50 (MDA-MB-231 cells [1]; [6]) [µM] | IC50 (MDA-MB-231 cells [1]; [7]) [µM] | IC50 (MDA-MB-231 cells [1]; [8]) [µM] | inhibition at 5 µM (MDA-MB-231 cells [2]; [9]) [%] | IC50 (T-47D cells; Homo sapiens, T47D) [µM] | IC50 (MCF-7 cells; Homo sapiens, MCF7) [µM] | IC50 (in vitro; [10]) [µM] | IC50 (in vitro; [11]) [µM] | IC50 (in vitro; [12]) [µM] | further results |
| --- | --- | --- | --- | --- | --- | --- | --- | --- | --- | --- | --- | --- | --- | --- |
| CO[C@@H]1[C@@H](O)[C@H](O[C@@H]2[C@@H](O)[C@H](O[C@H]3[C@H](O)[C@@H](O[C@@H]4OC[C@@H](O)[C@H](O)[C@H]4O)[C@H](O[C@H]4[C@H](O[C@H]5CC[C@]6(C)C7CC[C@]8(C)[C@@H]([C@@](C)(O)[C@H](O)CC=C(C)C)CC[C@@]8(C)C7=CC[C@H]6C5(C)C)OC[C@@H](OS(=O)(=O)[O-])[C@@H]4O)O[C@@H]3C)O[C@H](COS(=O)(=O)[O-])[C@H]2O)O[C@H](CO)[C@H]1O.[Na+].[Na+] (stereo partly drawn) [Conicospermiumoside A3-1 (1), 3β-O-{3-O-methyl-β-D-glucopyranosyl-(1→3)-6-O-sodium sulfate-β-D-glucopyranosyl-(1→4)-[(1→2)-β-D-xylopyranosyl]-β-D-quinovopyranosyl-(1→2)-4-O-sodium sulfate-β-D-xylopyranosyl}-20R,22R-dihydroxylanosta-7,24-diene] | 770 ± 70 | 2.29 | 11.97 | 3.14 | 2.54 ± 0.09 | 12.4 ± 0.75 | 5.93 ± 0.35 | 99.6 | 19.9 ± 1.02 | 41.7 ± 3.08 | 30.4 ± 1.05 | 39 ± 2.15 | 13.6 ± 0.71 | – |
| CO[C@@H]1[C@@H](O)[C@H](O[C@@H]2[C@@H](O)[C@H](O[C@H]3[C@H](O)[C@@H](O[C@@H]4OC[C@@H](O)[C@H](O)[C@H]4O)[C@H](O[C@H]4[C@H](O[C@H]5CC[C@]6(C)C7CC[C@]8(C)[C@@H]([C@@](C)(O)C(=O)CC=C(C)C)CC[C@@]8(C)C7=CC[C@H]6C5(C)C)OC[C@@H](OS(=O)(=O)[O-])[C@@H]4O)O[C@@H]3C)O[C@H](COS(=O)(=O)[O-])[C@H]2O)O[C@H](CO)[C@H]1O.[Na+].[Na+] (stereo partly drawn) [Conicospermiumoside A3-3 (3), 3β-O-{3-O-methyl-β-D-glucopyranosyl-(1→3)-6-O-sodium sulfate-β-D-glucopyranosyl-(1→4)-[(1→2)-β-D-xylopyranosyl]-β-D-quinovopyranosyl-(1→2)-4-O-sodium sulfate-β-D-xylopyranosyl}-20R-hydroxy,22-oxolanosta-7,24-diene] | 210 ± 20 | 2.03 | 1.05 | 1.02 | 10.1 ± 0.71 | 5.18 ± 0.43 | 5.62 ± 0.26 | 98.8 | 10.7 ± 0.94 | 28.5 ± 1.18 | 10.6 ± 0.72 | 5.27 ± 0.36 | 11.4 ± 0.58 | inhibition at 2 µM (MDA-MB-231 cells [2]; Homo sapiens, MDA-MB-231, 2 μM, read-out: Inhibition of colony growth of MDA-MB-231 cells): 96.8%; inhibition at 2 µM (MDA-MB-231 cells [3]; Homo sapiens, MDA-MB-231, 2 μM, read-out: Inhibition of migration of MDA-MB-231 cells as compared with control): 63.7% |
| CO[C@@H]1[C@@H](O)[C@H](O[C@@H]2[C@@H](O)[C@H](O[C@H]3[C@H](O)[C@@H](O[C@@H]4OC[C@@H](O)[C@H](O)[C@H]4O)[C@H](O[C@H]4[C@H](O[C@H]5CC[C@]6(C)C7=CC[C@]8(C)[C@@H]([C@@](C)(O)C(=O)CC=C(C)C)CC[C@@]8(C)C7CC[C@H]6C5(C)C)OC[C@@H](OS(=O)(=O)[O-])[C@@H]4O)O[C@@H]3C)O[C@H](COS(=O)(=O)[O-])[C@H]2O)O[C@H](COS(=O)(=O)[O-])[C@H]1O.[Na+].[Na+].[Na+] (stereo partly drawn) [Conicospermiumoside A7-1 (4), 3β-O-{6-O-sodium sulfate-3-O-methyl-β-D-glucopyranosyl-(1→3)-6-O-sodium sulfate-β-D-glucopyranosyl-(1→4)-[(1→2)-β-D-xylopyranosyl]-β-D-quinovopyranosyl-(1→2)-4-O-sodium sulfate-β-D-xylopyranosyl}-(20R)-hydroxy-22-oxo-lanosta-9(11),24-diene] | 360 ± 40 | – | 2.32 | 0.99 | 15.3 ± 1.01 | 11.2 ± 0.73 | 4.78 ± 0.23 | – | 19.7 ± 1.01 | > 50 | 35.5 ± 1.59 | 11.1 ± 0.57 | 40.2 ± 2.1 | Influence on colony formation and growth of MCF-10A cells (MCF-10A cells [4]): did not influence |
| DS-okhotoside A1-1 [DS-okhotoside A1-1 (7a)] | – | 2.76 | 1.20 | 1.42 | – | – | – | – | – | – | – | – | – | ED50, Erythrocytes (hemolytic activity) (human erythrocytes): 0.24 ± 0.02 µM; IC50 (MDA-MB-231 cells [1]; 48 h, read-out: Cytotoxicity, IC50, 48 h, MDA-MB-231): 4.32 ± 0.3 µM; IC50 (MDA-MB-231 cells [1]; 72 h, read-out: Cytotoxicity, IC50, 72 h, MDA-MB-231): 2.73 ± 0.18 µM; IC50 (MDA-MB-231 cells [1]; MTT, 24 h, read-out: Cytotoxicity, IC50, MDA-MB-231): 2.83 ± 0.36 µM; Inhibition of colony growth of MDA-MB-231 cells (MDA-MB-231 cells [2]; 1 μM, inhibition out of control): 97.2%; IC50 (T-47D cells): 7.8 ± 0.31 µM; IC50 (MCF-7 cells): 18.8 ± 1.02 µM; Inhibition of migration of MDA-MB-231 cells as compared with control (MDA-MB-231 cells [3]; 0.5 μM): 61.2%; Constraint on cell motility (migration) of MDA-MB-231 cells (MDA-MB-231 cells [3]; 1 μM): 85%; IC50 (MCF-10A cells [5]; [10]): 5.18 ± 0.28 µM; IC50 (MCF-10A cells [5]; [11]): 3.87 ± 0.24 µM; IC50 (MCF-10A cells [5]; [12]): 7.81 ± 0.32 µM |
